Biological target: Human factor D (Homo sapiens (Human), UniProt P00746)
Format: biochemical
Details: not given

Human factor D, sequence (P00746 26-253 limits assumed): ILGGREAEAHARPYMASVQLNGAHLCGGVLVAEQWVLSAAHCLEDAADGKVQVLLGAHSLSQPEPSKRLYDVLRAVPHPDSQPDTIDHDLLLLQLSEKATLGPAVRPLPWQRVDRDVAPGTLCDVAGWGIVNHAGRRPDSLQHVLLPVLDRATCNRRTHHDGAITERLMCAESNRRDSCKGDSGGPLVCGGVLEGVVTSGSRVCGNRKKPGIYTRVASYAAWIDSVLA

Row | Compound | IC50
1 | CC(=O)c1cn(CC(=O)N2C[C@H](F)C[C@H]2C(=O)NCc2cccc(Cl)c2F)c2cc(OC(=O)NCCP(=O)(O)O)ccc12 [Compound 6, 2-((3-acctyl-1-(2-((2S,4R)-2-(3-chloro-2-fluorobenzylcarbamoyl)-4-fluoropyrrolidin-1-yl)-2-oxoethyl)-1H-indol-6-yloxy)carbonylamino) ethylphosphonic acid] | < 1000 nM
2 | CC(=O)c1cn(CC(=O)N2C[C@H](F)C[C@H]2C(=O)NCc2cccc(Cl)c2F)c2cc(OC(=O)NCc3cscn3)ccc12 [Compound 3, 3-acctyl-1-(2-((2S,4R)-2-(3-chloro-2-fluorobenzylcarbamoyl)-4-fluoropyrrolidin-1-yl)-2-oxoethyl)-1H-indol-6-yl thiazol-4-ylmethylcarbamate] | < 1000 nM
3 | CC(=O)c1cn(CC(=O)N2C[C@H](F)C[C@H]2C(=O)NCc2cccc(Cl)c2F)c2ccc(OC(=O)NCc3nnn[nH]3)cc12 [Compound 10, 3-acetyl-1-(2-((2S,4R)-2-(3-chloro-2-fluorobenzylcarbamoyl)-4-fluoropyrrolidin-1-yl)-2-oxoethyl)-1H-indol-5-yl (1H-tetrazol-5-yl)methylcarbamate] | < 1000 nM
4 | CC(=O)c1cn(CC(=O)N2C[C@H](F)C[C@H]2C(=O)NCc2cccc(Cl)c2F)c2cc(OC(=O)NCc3nn[nH]n3)ccc12 [Compound 4, 3-acetyl-1-(2-((2S,4R)-2-(3-chloro-2-fluorobenzylcarbamoyl)-4-fluoropyrrolidin-1-yl)-2-oxoethyl)-1H-indol-6-yl (2H-tetrazol-5-yl)methylcarbamate] | < 1000 nM
5 | CC(=O)c1cn(CC(=O)N2C[C@H](F)C[C@H]2C(=O)NCc2cccc(Cl)c2F)c2cc(C(=O)C[S+](C)[O-])ccc12 (stereo partly drawn) [Compound 11, (2S,4R)-1-(2-(3-acetyl-6-(2-(methylsulfinyl)acetyl)-1H-indol-1-yl)acetyl)-N-(3-chloro-2-fluorobenzyl)-4-fluoropyrrolidine-2-carboxamide] | < 1000 nM
6 | CC(=O)c1cn(CC(=O)N2C[C@H](F)C[C@H]2C(=O)NCc2cccc(Cl)c2F)c2cc(OC(=O)NCc3ccc(B(O)O)cc3)ccc12 [Compound 7, 4-(((3-acetyl-1-(2-((2S,4R)-2-(3-chloro-2-fluorobenzylcarbamoyl)-4-fluoropyrrolidin-1-yl)-2-oxoethyl)-1H-indol-6-yloxy)carbonylamino)methyl)phenylboronic acid] | < 1000 nM
7 | CC(=O)c1cn(CC(=O)Oc2ccc3c(c2)c(C(C)=O)cn3CC(=O)N2C[C@H](F)C[C@H]2C(=O)NCc2cccc(Cl)c2F)c2ccc(O)cc12 [Compound 1, 3-acetyl-1-(2-((2S,4R)-2-(3-chloro-2-fluorobcnzylcarbamoyl)-4-fluoropyrrolidin-1-yl)-2-oxoethyl)-1H-indol-5-yl 2-(3-acctyl-5-hydroxy-1H-indol-1-yl)acctate] | < 1000 nM
8 | CC(=O)c1cn(CC(=O)N2C[C@H](F)C[C@H]2C(=O)NCc2cccc(Cl)c2F)c2ccc(OC(=O)NCc3cscn3)cc12 [Compound 2, 3-acctyl-1-(2-((2S,4R)-2-(3-chloro-2-fluorobenzylcarbamoyl)-4-fluoropyrrolidin-1-yl)-2-oxoethyl)-1H-indol-5-yl thiazol-4-ylmethylcarbamate] | < 1000 nM
9 | CC(=O)c1cn(CC(=O)N2C[C@H](F)C[C@H]2C(=O)NCc2cccc(Cl)c2F)c2ccc(OC(=O)NCCc3c[nH]cn3)cc12 [Compound 15, 3-acctyl-1-(2-((2S,4R)-2-(3-chloro-2-fluorobenzylcarbamoyl)-4-fluoropyrrolidin-1-yl)-2-oxoethyl)-1H-indol-5-yl 2-(1H-imidazol-4-yl)ethylcarbamate] | < 1000 nM
10 | CC(=O)c1cn(CC(=O)N2C[C@H](F)C[C@H]2C(=O)NCc2cccc(Cl)c2F)c2ccc(OC(=O)NCc3cocn3)cc12 [Compound 9, 3-acctyl-1-(2-((2S,4R)-2-(3-chloro-2-fluorobenzylcarbamoyl)-4-fluoropyrrolidin-1-yl)-2-oxoethyl)-1H-indol-5-yl oxazol-4-ylmethylcarbamate] | < 1000 nM
11 | CC(=O)c1cn(CC(=O)N2C[C@H](F)C[C@H]2C(=O)NCc2cccc(Cl)c2F)c2ccc(OC(=O)NCCc3nn[nH]n3)cc12 [Compound 14, 3-acctyl-1-(2-((2S,4R)-2-(3-chloro-2-fluorobenzylcarbamoyl)-4-fluoropyrrolidin-1-yl)-2-oxoethyl)-1H-indol-5-yl 2-(2H-tetrazol-5-yl)ethylcarbamate] | < 1000 nM
12 | CC(=O)c1cn(CC(=O)N2C[C@H](F)C[C@H]2C(=O)NCc2cccc(Cl)c2F)c2ccc(OC(=O)NCc3ncccn3)cc12 [Compound 13, 3-acctyl-1-(2-((2S,4R)-2-(3-chloro-2-fluorobenzylcarbamoyl)-4-fluoropyrrolidin-1-yl)-2-oxoethyl)-1H-indol-5-yl pyrimidin-2-ylmethylcarbamate] | < 1000 nM
13 | CC(=O)c1cn(CC(=O)N2C[C@H](F)C[C@H]2C(=O)NCc2cccc(Cl)c2F)c2cc(OC(=O)NCCc3nn[nH]n3)ccc12 [Compound 5, 3-acctyl-1-(2-((2S,4R)-2-(3-chloro-2-fluorobenzylcarbamoyl)-4-fluoropyrrolidin-1-yl)-2-oxoethyl)-1H-indol-6-yl 2-(2H-tetrazol-5-yl)ethylcarbamate] | < 1000 nM
14 | CC(=O)c1cn(CC(=O)N2C[C@H](F)C[C@H]2C(=O)NCc2cccc(Cl)c2F)c2ccc(OC(=O)N3CCOCC3)cc12 [Compound 12, 3-acetyl-1-(2-((2S,4R)-2-(3-chloro-2-fluorobenzylcarbamoyl)-4-fluoropyrrolidin-1-yl)-2-oxoethyl)-1H-indol-5-yl morpholine-4-carboxylate] | < 1000 nM
15 | CC(=O)c1cn(CC(=O)N2C[C@H](F)C[C@H]2C(=O)NCc2cccc(Cl)c2F)c2ccc(OC(=O)NC3CC3)cc12 [Compound 8, 3-acetyl-1-(2-((2S,4R)-2-(3-chloro-2-fluorobenzylcarbamoyl)-4-fluoropyrrolidin-1-yl)-2-oxoethyl)-1H-indol-5-yl cyclopropylcarbamate] | < 1000 nM

Same assay, conditions: factor D 80 nM, substrate Z-L-Lys-SBzl 100 μM, DTNB, pH 7.5

Row | Compound | IC50
16 | CC(=O)c1cn(CC(=O)N2C[C@H](F)C[C@H]2C(=O)NCc2cccc(Cl)c2F)c2ccc(OC(=O)N3CCNCC3)cc12 [Compound 16, 3-acetyl-1-(2-((2S,4R)-2-(3-chloro-2-fluorobenzylcarbamoyl)-4-fluoropyrrolidin-1-yl)-2-oxoethyl)-1H-indol-5-yl piperazine-1-carboxylate] | < 1000 nM

Source: patent US9732103B2 (priority 2014, dated 2017)
